Test [1] deals with mutp53 in BT549 cell extract. The test is described as follows: ELISA of mutp53 conformation, BT549. In kind it is biochemical, human. The conditions noted are these: score 0-6 compared to positive control. An excerpt: (§1) A total of close to 350 peptides, deduced from the phage sequences, were synthesized and subjected to several alternative complementary methods of semi high-throughput functional screening; we refer to these peptides as pCAPs (p53 conformation activating peptides). First, we used cell-free ELISA assays to evaluate the effect of individual peptides on mutp53 conformation and DNA binding in vitro. For conformation analysis (Figure 2A), microtiter plates were coated with PAb240, PAb1620 or PAb421 as control, then the effect of each peptide on reactivity of mutp53 with these antibodies was examined; WTp53 served as a positive control for PAb1620 reactivity.
(§2) 96-well plates were coated using 3 different anti p53 monoclonal antibodies, PAb421, PAb240 and PAb1620. Wells were incubated overnight (ON) with 100μl Ab (5μg/ml) in room temp (RT). The liquid was discarded, and the wells were washed 3 times with PBS, 200 μl. Next, blocking with 5% BSA in PBS for 2 hours (RT) was performed, followed by 3 washes in PBS. Samples of mutant and WT p53 proteins (100 μl, 10 μg/ml), together with control peptides or with test peptides 1-326 (5μg /ml), were incubated for 1.5 hours, and then added to the wells for1 hour at RT. 4 washes with PBST were performed. Next, HRP conjugated αp53 antibody (10μg/ml HAF1355 (R&D)) were added to the wells and incubated at RT for 1 hour. Plates were washed 3 times in PBST and TMB substrate solution (50μl each well, Thermo, (Cat. No. ES001-1L-K)) was added and incubated at 37°C for 20 min. The reaction was stopped with 2M Sulfuric acid (50μl). The absorbance was measured at 450 nm with a spectrophotometer. Protein concentration was determined by dividing the absorb an each sample to by the absorbance of PAb421 samples.
In general terms: An ELISA detects its analyte on a solid surface through an enzyme-linked reagent.

The next test has as its system HOP62. The test is described as follows: Crystal violet viability assay, HOP62. In kind it is cell-based, human. The arrangement: key: score 0- no effect-white; score 6- as or more effective than positive control- black. The conditions noted are these: score 0-6 compared to positive control, 48 h. The source says: We also performed a similar analysis on ES2 ovarian cancer cells, which express endogenous mp53^S241F, compared to ES2 cells in which p53 was stably knocked out using CRISPR/Cas9 (ES2 p53KO Figure S1F), to control for specificity for mutp53 (Figure 2D). In ES2 cells, too, some of the peptides caused a significant reduction in cell numbers, more prominent in the mutp53 expressing cells than in their p53KO counterparts. […] Overall, we performed this analysis on several different mutp53-expressing human cancer cell lines, and the results are summarized in Table S3. Based on this comprehensive picture, we reduced the number of most promising candidate lead peptides to 30. These peptides were then synthesized with an 8 arginine C-terminal tail for enhanced delivery across cell membranes (pCAPs 130-160); for clarity, peptides are referred to by their original number, with an R for poly arginine (see Table S3).
Cells were cultured in 96 wells plates with 2500-4000 cells/well. Serial dilutions of different peptides were added and the plates incubated for additional 48 h at 37°C. Then medium was removed and cell viability was determined by staining the cells with crystal violet (0.05%) in methanol/PBS (1:5, v/v), for 10 min, followed by 3 washes with PBS. 10% acetic acid was added to each well for 10 min. OD was determined at 595 nm.

The test system of test [2] is mutp53 in SK3 cell extract. The test is described as follows: ELISA of mutp53 DNA binding (p53RE oligonucleotide), SK3. Conditions: score 0-6 compared to positive control. In kind it is biochemical, human. The method, then:
Next, we assessed the ability of our selected peptides to restore sequence-specific DNA binding to mutp53. To that end we employed an ELISA kit (R&D) in which cell extracts containing p53 are reacted with a biotinylated p53RE oligonucleotide and then incubated in wells coated with anti-p53 antibody, which is expected to trap the p53 protein and its associated p53RE DNA. The amount of p53RE retained in each well via p53 binding is quantified by incubation with streptavidin-HRP. […] Again, extracts of MCF7 and H1299-tsp53^A135V cells served as positive controls for WTp53 DNA binding activity. […] Importantly, there was substantial overlap between the peptides that stabilized the WT conformation (Figure 2A) and those that increased specific DNA binding (Figure 2B), further reinforcing the conclusion that those peptides stabilize mutp53 in a functional state. This was not seen with the randomly selected peptides 1-6 (black bars).
For these experiments, a commercial p53/DNA binding kit of “R&D” (Cat-DYC1355-5 Lot-1273366FA) was used, in accordance with manufacturer guide lines. Briefly, 96 well plates we coated with anti-p53 antibody overnight. Cell extracts containing p53 are reacted with an oligonucleotide that contains a p53 consensus binding site (provided in the kit), labeled with Biotin, in the presence or absence (NT) of test peptides. WT p53 is expected to bind this DNA binding site as well as to the antibody coating the test wells of the plate. Excess p53 and oligos were washed away and streptavidin-HRP was used to quantify the amount of oligos in the well, which is proportional to the DNA bound by p53. TMB assay was performed to determine HRP (ES001-1L-K) levels (450nm).

The subject of test [3] is mutp53 in SK3 cell extract. The test is described as follows: ELISA of mutp53 conformation, SK3. In kind it is biochemical, human. Conditions: score 0-6 compared to positive control.
From the text: as §1, §2

The values that follow come from PMC4914250, “Cancer therapeutic approach based on conformational stabilization of mutant p53 protein by small peptides” (Oncotarget, 2016).

On to “EVTFRHSVV [pCAP-1, randomly selected peptide used as inert comparison]”, for which the “Conform BT549” value in test [1] worked out at 1. Further, in the test with HOP62, the “Viability HOP62” value is on record as 3.
With HANLHHT [pCAP-87], in test [1], the “Conform BT549” value came to 2. The “DNA SK3” value in test [2] worked out at 2. Besides, in the test with HOP62, the “Viability HOP62” value is listed as 3.
As to HHPWTHHQRWS [pCAP-20], in test [3], the “Conform SK3” value is reported as 4.
As for HSSHHHPVHSWN [pCAP-83], in test [2], the “DNA SK3” value is listed as 2. Besides, the “Conform SK3” value in test [3] was 2.
IRGRIIR [pCAP-54]: the “Conform BT549” value in test [1] was 2.
On to “IRGRIIRRRRRRRRR [pCAP-54R, pCAP-54 with poly arginine tail]”, for which the “Conform BT549” value in test [1] was 2. The “Viability HOP62” value in the test on HOP62 is 2.
For IRILMFLIGCGR [pCAP-23], the “Conform BT549” value in test [1] is 2. The “Viability HOP62” value with HOP62 was 3.
Turning to “IRILMFLIGCGRRRRRRRRR [pCAP-23R, pCAP-23 with poly arginine tail]”, the “Conform BT549” value in test [1] is 1. Besides, the “Viability HOP62” value with HOP62 was 3.
Consider LHSKTLVL [pCAP-17], for which the “Conform BT549” value in test [1] is 2. Also, the “DNA SK3” value in test [2] was 3.
Turning to LRCLLLLIGRVG [pCAP-24], the “Conform BT549” value in test [1] was found to be 2. The “DNA SK3” value in test [2] is 3. Further, the “Conform SK3” value in test [3] amounted to 2.
For “LRCLLLLIGRVGRRRRRRRR [pCAP-24R, pCAP-24 with poly arginine tail]”, the “Conform BT549” value in test [1] stood at 2. Further, the “DNA SK3” value in test [2] came out at 3. Also, in test [3], the “Conform SK3” value worked out at 2.
As to SFILFIRRGRLG [pCAP-60], the “Conform BT549” value in test [1] turned out to be 1. Moreover, in the test on HOP62, the “Viability HOP62” value is reported as 3. Also, in test [3], the “Conform SK3” value was 2.
For the substance “SFILFIRRGRLGRRRRRRRRR [pCAP-60R, pCAP-60 with poly arginine tail]”, the “Conform BT549” value in test [1] is given as 2. For the same substance, the “DNA SK3” value in test [2] is given as 2. The “Viability HOP62” value in the test on HOP62 is listed as 2. The “Conform SK3” value in test [3] is 3.
As to WNHHHSTPHPAH [pCAP-97], the “DNA SK3” value in test [2] came to 2. Moreover, the “Viability HOP62” value in the test on HOP62 is 4. The “Conform SK3” value in test [3] is 3.
Turning to “WNHHHSTPHPAHRRRRRR [pCAP-97R, pCAP-97 with poly arginine tail]”, the “DNA SK3” value in test [2] is 3. In addition, the “Viability HOP62” value in the test on HOP62 is recorded as 4. In addition, the “Conform SK3” value in test [3] was 3.
As to YPTQGHLR [pCAP-36], the “DNA SK3” value in test [2] is 2. In the test with HOP62, the “Viability HOP62” value was found to be 3. For the same substance, the “Conform SK3” value in test [3] worked out at 3.
Regarding YRRLLIGMMWRRRRRRRRR [pCAP-68], the “Viability HOP62” value in the test with HOP62 stood at 5. In addition, the “Conform SK3” value in test [3] is 5.
Turning to “myr-PRVLPSPHTIHPSQYP [pCAP-229, myristoylated peptide, similarity to HIPK2]”, the “DNA SK3” value in test [2] came to 3. In addition, the “Viability HOP62” value with HOP62 is recorded as 4. Further, the “Conform SK3” value in test [3] came out at 2.
Regarding myr-RRIRDPRILLLHFD [pCAP-325], the “Conform BT549” value in test [1] came out at 3. In addition, in test [2], the “DNA SK3” value was determined as 3. In the test on HOP62, the “Viability HOP62” value is on record as 4. Besides, the “Conform SK3” value in test [3] is recorded as 3.
Take myr-RRKHNKHRPEPDSDER [pCAP-221]: the “Conform BT549” value in test [1] is listed as 3. The “DNA SK3” value in test [2] is 3. Moreover, in the test on HOP62, the “Viability HOP62” value is listed as 5. In addition, the “Conform SK3” value in test [3] is given as 3.
For the substance “myr-RRKILFIRLMHNKH [pCAP-227, myristoylated peptide, similarity to GAS2]”, in test [1], the “Conform BT549” value is on record as 4. In addition, the “DNA SK3” value in test [2] is recorded as 3. The “Viability HOP62” value with HOP62 is 6. The “Conform SK3” value in test [3] was 1.
With myr-RRLIVRILKLPNPPER [pCAP-242], the “Conform BT549” value in test [1] came to 4. In test [2], the “DNA SK3” value is recorded as 4. For the same substance, the “Viability HOP62” value in the test on HOP62 was found to be 5.
